From US20100305124A1, “Acylated Aminopyridine and Aminopyridazine Insecticides” (BAYER CROPSCIENCE AG, priority 2009, published 2010) come the findings set out here.

The first assay has as its system common spider mite (Tetranychus urticae). Briefly: Tetranychus test (TETRUR), sprayed French bean plants. The class given is in vivo. The conditions noted are these: application rate of 500 ppm; spray on French bean plants. As for the experimental part:
Tetranychus Test (TETRUR) Solvent: 3 parts by weight of dimethylformamide Emulsifier: 1 part by weight of polyoxyethylenealkyl phenyl ether An appropriate preparation of active ingredient is prepared by mixing 1 part by weight of active ingredient with the stated amount of solvent and emulsifier and diluting the concentrate with water to the desired concentration. French bean (Phaseolus vulgaris) plants are infested with a mixed population of the common spider mite (Tetranychus urticae) and sprayed with the preparation of active ingredient at the desired concentration. After the desired time, the effect in % is determined: here, 100% means that all of the spider mites have been killed. Conversely, 0% means that no spider mites have been killed.
For the compound `CN(C(=O)c1ccc(Oc2ccc(C(C)(C)C)cc2)nc1)c1cccnc1` [I-127], the “effect in % (spider mites killed)” value is reported as not below 80%.

A further assay has as its system green peach aphid (Myzus persicae). Briefly: Myzus test (MYZUPE spray treatment), Chinese cabbage leaf discs. The assay is classed as in vivo. To be noted: foliar, application rate of 500 g/ha, spray on Chinese cabbage discs, read-out: effect in % (aphids killed). As to the method:
Myzus Test (MYZUPE Spray Treatment)
Solvents: 78 parts by weight of acetone • • 1.5 parts by weight of dimethylformamide Emulsifier: 0.5 part by weight of alkylaryl polyglycol ether
An appropriate preparation of active ingredient is prepared by mixing 1 part by weight of active ingredient with the stated amounts of solvents and emulsifier and diluting the concentrate with emulsifier-containing water to the desired concentration.
Discs of Chinese cabbage (Brassica pekinensis) infested with all stages of the green peach aphid (Myzus persicae) are sprayed with a preparation of active ingredient at the desired concentration.
After the desired time, the effect in % is determined. Here, 100% means that all of the aphids have been killed; 0% means that no aphids have been killed.
For the compound `COc1ccc(C(=O)N(C)c2cccnc2)cc1NC(=O)OC(C)C` [I-337], the pest or weed control at 500 g/ha was not below 80%.
Still for that read-out and setting: for `CN(C(=O)c1cccc(C(F)(F)F)c1)c1cccnc1` [I-262] the value was not below 80%.
Same read-out and setting: the value for `CC(=O)Nc1cc(C(=O)N(C)c2cccnc2)ccc1C` [I-308] was not below 80%; that for `CCC(C)C(=O)Nc1cc(C(=O)N(C)c2cccnc2)ccc1OC` (stereo not drawn) [I-332] was not below 80%.
Same read-out and setting: the value for `O=C(Nc1cccnc1)c1ccc(F)c(C(F)(F)F)c1` [I-258] was not below 80%; that for `CCc1nn(C)cc1C(=O)N(C)c1ccnnc1` [I-326] was not below 80%; that for `COc1ccc(C(=O)N(C)c2cccnc2)cc1[N+](=O)[O-]` [I-294] was not below 80%.
On to `COCc1c(C(=O)N(C)c2cccnc2)cnn1-c1ncccn1` [I-273], for which the pest or weed control at 500 g/ha was not below 80%.
Regarding `CC(C)C(=O)Nc1cccc(C(=O)Nc2cccnc2)c1` [I-286], the pest or weed control at 500 g/ha is not below 80%.
The same measure, in the same setting: the value for `CN(C(=O)c1cnn(-c2ncccc2Cl)c1C(F)(F)F)c1cccnc1` [I-272] was not below 80%; that for `Cc1ccc(C(=O)N(C)c2cccnc2)cc1NC(=O)C(C)(C)C` [I-305] was not below 80%; that for `CC(C)=CC(=O)Nc1cc(C(=O)N(C)c2cccnc2)ccc1C` [I-318] was not below 80%.
The same measure, in the same setting: the value for `CCCC(=O)Nc1cc(C(=O)N(C)c2cccnc2)ccc1C` [I-315] was not below 80%; that for `CCC(=O)Nc1cc(C(=O)N(C)c2cccnc2)ccc1C` [I-310] was not below 80%.
The same measure, in the same setting: the value for `CCn1ncc(C(=O)Nc2cccnc2)c1C(F)(F)F` [I-287] was not below 80%; that for `CN(C(=O)c1ccc(F)c(C(F)(F)F)c1)c1cccnc1` [I-259] was not below 80%; that for `CN(C(=O)c1csc(-c2ncccc2Cl)n1)c1cccnc1` [I-278] was not below 80%.
For `CN(C(=O)c1cnn(-c2ncccn2)c1C(C)(F)F)c1cccnc1` [I-277], the pest or weed control at 500 g/ha was not below 80%.
The same measure, in the same setting: the value for `CN(C(=O)c1cnn(CC(F)(F)F)c1C(F)(F)F)c1cccnc1` [I-330] was not below 80%; that for `CN(C(=O)c1ccc(Cl)c(NC(=O)C2CC2)c1)c1cccnc1` [I-302] was not below 80%; that for `CN(C(=O)c1cnn(-c2ncccn2)c1C(F)(F)F)c1cccnc1` [I-268, 1-Pyrimidin-2-yl-5-trifluoromethyl-1H-pyrazole-4-carboxylic acid methylpyridin-3-ylamide] was not below 80%.
The same measure, in the same setting: for `CC(C)c1nn(C)cc1C(=O)N(C)c1ccnnc1` [I-323] the value was not below 80%.

The same assay, now with this note: foliar, application rate of 500 ppm, spray on Chinese cabbage discs, read-out: effect in % (aphids killed).
In the case of `CC(C)C(=O)Nc1cccc(C(=O)N(C)c2cccnc2)c1` [I-284], the pest or weed control at 500 ppm was not below 80%.
